Type in all cases: physicochemical
Data set [1] in a line: Thermal decomposition temperature by DSC. Particulars: 10° C./min to 500° C., nitrogen gas stream. As for the experimental part: (3) Thermal Decomposition Temperature
The apparatus EXSTAR6000DSC (trade name) manufactured by SII NanoTechnology Inc. was used. About 5 mg of each sample was placed in a non-sealed container made of aluminum, and the temperature was raised to 500° C. at the rate of temperature rise of 10° C./min in a nitrogen gas stream (30 mL/min). The temperature corresponding to a descending peak appeared in the baseline was defined as the thermal decomposition temperature.
On the technique in general: DSC measures the heat that a sample takes up or gives off during a temperature scan.

Data set [2] is described as follows: Glass transition temperature by DSC. Particulars: 10° C./min to 300° C., second heating after quench, nitrogen gas stream. As for the experimental part: (4) Glass Transition Temperature
The apparatus EXSTAR6000DSC (trade name) manufactured by SII NanoTechnology Inc. was used. About 5 mg of each sample was placed in a non-sealed container made of aluminum, and the temperature was raised to 300° C. at the rate of temperature rise of 10° C./min in a nitrogen gas stream (30 mL/min). After the non-sealed container made of aluminum was quenched, again the temperature was raised to 300° C. at the rate of temperature rise of 10° C./min in a nitrogen gas stream (30 mL/min), thereby performing DSC measurement. The temperature corresponding to the middle point (where the specific heat was changed into the half) of a region in which a discontinuous portion appeared in the baseline was defined as the glass transition point.

A short description of data set [3]: Solubility of compound in methyl ethyl ketone (MEK). Particulars: dissolution amount in MEK at 23° C., visual. The protocol:
(1) Solubility of Compound in Methyl Ethyl Ketone (MEK)
The solubility of the compound in MEK was evaluated according to the following standard using the dissolution amount in MEK at 23° C. For the measurement of the dissolution amount, the compound was precisely weighed in a test tube at 23° C.; and the target solvent was added to the compound so that a predetermined concentration of the liquid to be obtained was set; a ultrasonic wave was applied to the liquid in an ultrasonic washing machine for 30 minutes; and the state of the resulting liquid was visually evaluated.
Evaluation A: 50% by weight or more
Evaluation B: 10% by weigh or more and less than 50% by weight
Evaluation C: less than 10% by weight

Data set [4] is described as follows: Solubility test of compound in safe solvent. Particulars: 23° C., visual. As for the experimental part:
(2) Solubility Test of Compound in Safe Solvent
The solubility of the compound in PGME and PGMEA was evaluated according to the following standard using the dissolution amount in each solvent. For the measurement of the dissolution amount, the compound was precisely weighed in a test tube at 23° C.; and the target solvent was added to the compound so that a predetermined concentration of the liquid to be obtained was set; a ultrasonic wave was applied to the liquid in an ultrasonic washing machine for 30 minutes; and the state of the resulting liquid was visually evaluated.
A: 5.0% by weight≦dissolution amount
B: 3.0% by weight≦dissolution amount<5.0% by weight
C: dissolution amount<3.0% by weight

Consider `Oc1ccc2c3c(ccc2c1)Oc1ccc2cc(O)ccc2c1C3c1ccc(-c2ccccc2)cc1` [XBisN-1], for which the thermal decomposition temperature in data set [1] is 410 °C. In data set [2], this compound showed a glass transition point of 152 °C. Also, the “solubility in MEK” value in data set [3] is “A (Evaluation A: 50% by weight or more)”. In data set [4], the “Solubility test of compound in safe solvent PGME” value is on record as “A (A: 5.0% by weight≦dissolution amount)” and the “Solubility test of compound in safe solvent PGMEA” value is listed as “A (A: 5.0% by weight≦dissolution amount)”.
Compound `Oc1ccc2ccc3c(c2c1)C(c1ccc(-c2ccccc2)cc1)c1c(ccc2ccc(O)cc12)O3` [XBisN-2] gave a thermal decomposition temperature in data set [1] of 410 °C. The glass transition point in data set [2] came to 152 °C. In addition, the “solubility in MEK” value in data set [3] was “B (Evaluation B: 10% by weigh or more and less than 50% by weight)”. In addition, in data set [4], the “Solubility test of compound in safe solvent PGME” value is “A (A: 5.0% by weight≦dissolution amount)” and the “Solubility test of compound in safe solvent PGMEA” value is reported as “A (A: 5.0% by weight≦dissolution amount)”.
As to `Oc1cccc2c3c(ccc12)C(c1ccc(-c2ccccc2)cc1)c1ccc2c(O)cccc2c1O3` [XBisN-3], in data set [1], the thermal decomposition temperature was determined as 410 °C. For the same compound, in data set [2], the glass transition point amounted to 152 °C. The “solubility in MEK” value in data set [3] was “B (Evaluation B: 10% by weigh or more and less than 50% by weight)”. Further, in data set [4], the “Solubility test of compound in safe solvent PGME” value is “A (A: 5.0% by weight≦dissolution amount)” and the “Solubility test of compound in safe solvent PGMEA” value is “A (A: 5.0% by weight≦dissolution amount)”.
On to `Oc1cccc2c3c(ccc12)Oc1ccc2c(O)cccc2c1C3c1ccc(-c2ccccc2)cc1` [XBisN-4], for which, in data set [1], the thermal decomposition temperature was 410 °C. In data set [2], this compound displayed a glass transition point of 152 °C. The “solubility in MEK” value in data set [3] was “B (Evaluation B: 10% by weigh or more and less than 50% by weight)”. For the same compound, in data set [4], the “Solubility test of compound in safe solvent PGME” value is listed as “A (A: 5.0% by weight≦dissolution amount)” and the “Solubility test of compound in safe solvent PGMEA” value was “A (A: 5.0% by weight≦dissolution amount)”.
For `Oc1ccc2ccc3c(c2c1)Oc1c(ccc2ccc(O)cc12)C3c1ccc(-c2ccccc2)cc1` [XBisN-5], in data set [1], the thermal decomposition temperature is 410 °C. For the same compound, in data set [2], the glass transition point came to 152 °C. Besides, in data set [3], the “solubility in MEK” value is “B (Evaluation B: 10% by weigh or more and less than 50% by weight)”. In data set [4], the “Solubility test of compound in safe solvent PGME” value is “A (A: 5.0% by weight≦dissolution amount)” and the “Solubility test of compound in safe solvent PGMEA” value is reported as “A (A: 5.0% by weight≦dissolution amount)”.
In data set [1], `Oc1cc2ccccc2c2c1Oc1c(O)cc3ccccc3c1C2c1ccc(-c2ccccc2)cc1` [XBisN-6] had a thermal decomposition temperature of 410 °C. Also, in data set [2], the glass transition point came out at 152 °C. Further, the “solubility in MEK” value in data set [3] was “B (Evaluation B: 10% by weigh or more and less than 50% by weight)”. Besides, in data set [4], the “Solubility test of compound in safe solvent PGME” value is “A (A: 5.0% by weight≦dissolution amount)” and the “Solubility test of compound in safe solvent PGMEA” value was “A (A: 5.0% by weight≦dissolution amount)”.
Take `Oc1ccc2c3c(ccc2c1)Oc1ccc2cc(O)ccc2c1C3c1cccc2ccccc12` [XBisN-7]: the thermal decomposition temperature in data set [1] worked out at 415 °C. Further, in data set [2], the glass transition point came to 155 °C. For the same compound, the “solubility in MEK” value in data set [3] was “B (Evaluation B: 10% by weigh or more and less than 50% by weight)”. For the same compound, in data set [4], the “Solubility test of compound in safe solvent PGME” value is given as “A (A: 5.0% by weight≦dissolution amount)” and the “Solubility test of compound in safe solvent PGMEA” value is recorded as “A (A: 5.0% by weight≦dissolution amount)”.
Turning to `Oc1ccc2c3c(ccc2c1)Oc1ccc2cc(O)ccc2c1C3c1cc2ccccc2c2ccccc12` [XBisN-8], in data set [1], the thermal decomposition temperature is 415 °C. This compound came in with a glass transition point in data set [2] of 155 °C. In addition, in data set [3], the “solubility in MEK” value is “B (Evaluation B: 10% by weigh or more and less than 50% by weight)”. Also, in data set [4], the “Solubility test of compound in safe solvent PGME” value is recorded as “A (A: 5.0% by weight≦dissolution amount)” and the “Solubility test of compound in safe solvent PGMEA” value is “A (A: 5.0% by weight≦dissolution amount)”.
`Oc1ccc2c3c(ccc2c1)Oc1ccc2cc(O)ccc2c1C3c1cc2cccc3ccc4cccc1c4c32` [XBisN-9] yielded a thermal decomposition temperature in data set [1] of 420 °C. Also, the glass transition point in data set [2] was 155 °C. In addition, in data set [3], the “solubility in MEK” value is “B (Evaluation B: 10% by weigh or more and less than 50% by weight)”. In data set [4], the “Solubility test of compound in safe solvent PGME” value is given as “A (A: 5.0% by weight≦dissolution amount)” and the “Solubility test of compound in safe solvent PGMEA” value was “A (A: 5.0% by weight≦dissolution amount)”.
In data set [1], `Oc1ccc2c3c(ccc2c1)Oc1ccc2cc(O)ccc2c1C31CCCCC1` [XBisN-10] gave a thermal decomposition temperature of 400 °C. Besides, the glass transition point in data set [2] was found to be 140 °C. In addition, in data set [3], the “solubility in MEK” value is “B (Evaluation B: 10% by weigh or more and less than 50% by weight)”. In data set [4], the “Solubility test of compound in safe solvent PGME” value is on record as “A (A: 5.0% by weight≦dissolution amount)” and the “Solubility test of compound in safe solvent PGMEA” value was “A (A: 5.0% by weight≦dissolution amount)”.
On to `Oc1ccc2c3c(ccc2c1)Oc1ccc2cc(O)ccc2c1C31c2ccccc2-c2ccccc21` [XBisN-11], for which, in data set [1], the thermal decomposition temperature was 450 °C. This compound showed a glass transition point in data set [2] of 145 °C. For the same compound, in data set [3], the “solubility in MEK” value is “B (Evaluation B: 10% by weigh or more and less than 50% by weight)”. For the same compound, in data set [4], the “Solubility test of compound in safe solvent PGME” value is recorded as “A (A: 5.0% by weight≦dissolution amount)” and the “Solubility test of compound in safe solvent PGMEA” value is listed as “A (A: 5.0% by weight≦dissolution amount)”.
The compound `Oc1ccc2c3c(ccc2c1)Oc1ccc2cc(O)ccc2c1C3c1ccc(C2c3c(ccc4cc(O)ccc34)Oc3ccc4cc(O)ccc4c32)cc1` [XBisN-12] yielded a thermal decomposition temperature in data set [1] of 410 °C. For the same compound, the glass transition point in data set [2] is 152 °C. Also, the “solubility in MEK” value in data set [3] was “B (Evaluation B: 10% by weigh or more and less than 50% by weight)”. Besides, in data set [4], the “Solubility test of compound in safe solvent PGME” value is listed as “A (A: 5.0% by weight≦dissolution amount)” and the “Solubility test of compound in safe solvent PGMEA” value is “A (A: 5.0% by weight≦dissolution amount)”.
`Oc1ccc2c3c(ccc2c1)Oc1ccc2cc(O)ccc2c1C3c1ccc(-c2ccc(C3c4c(ccc5cc(O)ccc45)Oc4ccc5cc(O)ccc5c43)cc2)cc1` [XBisN-13] registered a thermal decomposition temperature in data set [1] of 410 °C. Further, the glass transition point in data set [2] came to 152 °C. Moreover, the “solubility in MEK” value in data set [3] was “B (Evaluation B: 10% by weigh or more and less than 50% by weight)”. Moreover, in data set [4], the “Solubility test of compound in safe solvent PGME” value is “A (A: 5.0% by weight≦dissolution amount)” and the “Solubility test of compound in safe solvent PGMEA” value is “A (A: 5.0% by weight≦dissolution amount)”.
In data set [1], `Oc1ccc2c3c(ccc2c1)Oc1ccc2cc(O)ccc2c1C3c1cc(C2c3c(ccc4cc(O)ccc34)Oc3ccc4cc(O)ccc4c32)cc(C2c3c(ccc4cc(O)ccc34)Oc3ccc4cc(O)ccc4c32)c1` [XBisN-14] registered a thermal decomposition temperature of 410 °C. This compound displayed a glass transition point in data set [2] of 152 °C. Moreover, the “solubility in MEK” value in data set [3] is “B (Evaluation B: 10% by weigh or more and less than 50% by weight)”. In addition, in data set [4], the “Solubility test of compound in safe solvent PGME” value is “A (A: 5.0% by weight≦dissolution amount)” and the “Solubility test of compound in safe solvent PGMEA” value is on record as “A (A: 5.0% by weight≦dissolution amount)”.
